This is an account of results in patent US9096524B2, “Anthelmintic agents and their use” (Intervet International B.V., priority 2009, dated 2015).

Where two headings read alike, the source gives them in different places. Bounds are passed on as bounds.

This experiment deals with A. galli (intestinal roundworm of chicken) larval stage 3; O. dentatum (nodular worm of swine) larval stages 3 and 4. Description: Activity against Ascaridia galli and Oesophagostomum dentatum larvae in vitro (minimum effective concentration). Format: cell-based.
Setting [1] is: read-out: MEC (minimum effective concentration) against one or more of the tested nematodes, in vitro, one or more of A. galli L3, O. dentatum L3, L4, threshold 1 μM.
[2] abbreviates: read-out: MEC (minimum effective concentration) against one or more of the tested nematodes, in vitro, one or more of A. galli L3, O. dentatum L3, L4, threshold 7 μM.
Setting [3] is: read-out: MEC (minimum effective concentration) against two or more of the tested nematodes, in vitro, two or more of A. galli L3, O. dentatum L3, L4, threshold 1 μM.

For `O=C(CC(=O)N1CCN(c2ccc(C(F)(F)F)cc2)CC1)N1CCC(Nc2ccc([N+](=O)[O-])c(C(F)(F)F)c2)CC1` [Example 78, 1-[4-(4-nitro-3-trifluoromethyl-phenylamino)-piperidin-1-yl]-3-[4-(4-trifluoromethyl-phenyl)-piperazin-1-yl]-propane-1,3-dione], the minimal effective concentration under setting [1] was under 1 µM, the minimal effective concentration under setting [2] was under 7 µM and the minimal effective concentration under setting [3] is under 1 µM.

Regarding `O=C(CCCN1CCN(c2ccc(C(F)(F)F)cc2)CC1)N1CCC(Oc2ccc([N+](=O)[O-])c(C(F)(F)F)c2)CC1` [Example 79, 1-[4-(4-nitro-3-trifluoromethyl-phenoxy)-piperidin-1-yl]-4-[4-(4-trifluoromethyl-phenyl)-piperazin-1-yl]-butan-1-one], the minimal effective concentration reads like this: under setting [1], under 1 µM; under setting [2], under 7 µM; under setting [3], under 1 µM.

Regarding `O=C(CCCN1CCN(c2ccc(C(F)(F)F)cc2)CC1)N1CCC(Nc2cccc(C(F)(F)F)c2)CC1` [Example 81, 1-[4-(3-trifluoromethyl-phenylamino)-piperidin-1-yl]-4-[4-(4-trifluoromethyl-phenyl)-piperazin-1-yl]-butan-1-one], the minimal effective concentration is under 1 µM under setting [1], under 7 µM under setting [2] and under 1 µM under setting [3].

With `N#Cc1ccc(NC2CCN(C(=O)CCCN3CCN(c4ccc(C(F)(F)F)cc4)CC3)CC2)cc1` [Example 83, 4-(1-{4-[4-(4-trifluoromethyl-phenyl)-piperazin-1-yl]-butyryl}-piperidin-4-ylamino)-benzonitrile], the minimal effective concentration reads like this: under setting [1], under 1 µM; under setting [2], under 7 µM; under setting [3], under 1 µM.

With `O=C(CCCN1CCN(c2ccc(C(F)(F)F)cc2)CC1)N1CCC(Nc2ccc([N+](=O)[O-])nc2)CC1` [Example 95, 1-[4-(6-nitro-pyridin-3-ylamino)-piperidin-1-yl]-4-[4-(4-trifluoromethyl-phenyl)-piperazin-1-yl]-butan-1-one], the minimal effective concentration is under 1 µM under setting [1], under 7 µM under setting [2] and under 1 µM under setting [3].

As for `O=C(CCCN1CCN(c2ccc(C(F)(F)F)cc2)CC1)N1CCC(Nc2ccc([N+](=O)[O-])cn2)CC1` [Example 98, 1-[4-(5-nitro-pyridin-2-ylamino)-piperidin-1-yl]-4-[4-(4-trifluoromethyl-phenyl)-piperazin-1-yl]-butan-1-one], the minimal effective concentration by setting is: under setting [1], under 1 µM; under setting [2], under 7 µM; under setting [3], under 1 µM.

As for `Cc1nc(NC2CCN(C(=O)CCCN3CCN(c4ccc(C(F)(F)F)cc4)CC3)CC2)ccc1[N+](=O)[O-]` [Example 101, 1-[4-(6-methyl-5-nitro-pyridin-2-ylamino)-piperidin-1-yl]-4-[4-(4-trifluoromethyl-phenyl)-piperazin-1-yl]-butan-1-one], the minimal effective concentration under setting [1] was under 1 µM, the minimal effective concentration under setting [2] is under 7 µM and the minimal effective concentration under setting [3] is under 1 µM.

Regarding `N#Cc1ccc(NC2CCN(C(=O)CCCN3CCN(c4ccc(C(F)(F)F)cc4)CC3)CC2)cc1Cl` [Example 105, 2-chloro-4-(1-{4-[4-(4-trifluoromethyl-phenyl)-piperazin-1-yl]-butyryl}-piperidin-4-ylamino)-benzonitrile], the minimal effective concentration was under 1 µM under setting [1], under 7 µM under setting [2] and under 1 µM under setting [3].

Consider `CC(C)(C)c1ccc(N2CC3CN(CCC(=O)N4CCC(Nc5ccc([N+](=O)[O-])c(C(F)(F)F)c5)CC4)CC3C2)cc1` (stereo not drawn) [Example 128, 3-[5-(4-tert-butyl-phenyl)-hexahydro-pyrrolo[3,4-c]pyrrol-2-yl]-1-[4-(4-nitro-3-trifluoromethyl-phenylamino)-piperidin-1-yl]-propan-1-one], for which the minimal effective concentration runs as follows: under setting [1], under 1 µM; under setting [2], under 7 µM; under setting [3], under 1 µM.
